Test results: patent US8247351B2, “Insecticidal compositions having improved effect” (Bayer Cropscience AG, priority 2005, dated 2012)

How the values were obtained:
Format in all cases: in vivo
[1] = tested on: Myzus persicae; assay: Myzus persicae test, Example F (sprayed to runoff, ammonium salt plus penetrant)
Procedure: (§1) Solvent: 7 parts by weight dimethylformamide
(§2) Emulsifier: 2 parts by weight alkylaryl polyglycol ether
An appropriate preparation of active ingredient is prepared by mixing 1 part by weight of active ingredient with the stated amounts of solvent and emulsifier and diluting the concentrate with water to the desired concentration. For the application with ammonium salts or phosphonium salts and penetrant (rapeseed oil methyl ester 500 EW), they are each added in a concentration of 1000 ppm to the spray liquor.
After the desired time the destruction in % is ascertained. 100% means that all of the animals have been killed; 0% means that no animals have been killed.

[2] = tested on: Aphis gossypii; assay: Aphis gossypii test, Example G (sprayed to runoff, ammonium salt plus penetrant)
Procedure: as §1, §2
An appropriate preparation of active ingredient is prepared by mixing 1 part by weight of active ingredient with the stated amounts of solvent and emulsifier and diluting the concentrate with emulsifier-containing water to the desired concentration. For the application with ammonium salts or phosphonium salts and penetrants (rapeseed oil methyl esters 500 EW), they are each added in a concentration of 1000 ppm a.i. to the spray liquor.
(§3) Cotton plants (Gossypium hirsutum) heavily infested by the cotton aphid (Aphis gossypii) are sprayed to runoff with the preparation of active ingredient at the desired concentration.
(§4) After the desired time the destruction in % is ascertained. 100% means that all of the aphids have been killed; 0% means than no aphids were killed.

[3] = tested on: Aphis gossypii; assay: Aphis gossypii test, Example E (sprayed to runoff, ammonium salt boosting)
Procedure: as §1, §2
An appropriate preparation of active ingredient is prepared by mixing 1 part by weight of active ingredient with the stated amounts of solvent and emulsifier and diluting the concentrate with emulsifier-containing water to the desired concentration. For the application with ammonium salts or phosphonium salts, these salts are added in a concentration of 1000 ppm to the spray liquor.
as §3, §4

[4] = tested on: Myzus persicae; assay: Myzus persicae test, Example D (sprayed to runoff, ammonium salt boosting)
Procedure: as §1, §2
An appropriate preparation of active ingredient is prepared by mixing 1 part by weight of active ingredient with the stated amounts of solvent and emulsifier and diluting the concentrate with water to the desired concentration. For the application with ammonium salts or phosphonium salts, these salts are added in a concentration of 1000 ppm to the spray liquor.
Paprika plants (Capsicum annum) heavily infested by the green peach aphid (Myzus persicae) are treated by being. sprayed to runoff with the preparation of active ingredient at the desired concentration. After the desired time the destruction in % is ascertained. 100% means that all of the animals have been killed; 0% means that no animals have been killed.

[5] = 4 ppm active ingredient, +AS (1000 ppm)
[6] = 4 ppm active ingredient, +RME (1000 ppm)
[7] = 4 ppm active ingredient, +RME +AS (each 1000 ppm)
[8] = 4 ppm active ingredient, no additive
[9] = 20 ppm active ingredient, +AS (1000 ppm)
[10] = 20 ppm active ingredient, no additive
[11] = 0.8 ppm active ingredient, +AS (1000 ppm)
[12] = 0.8 ppm active ingredient, +RME (1000 ppm)
[13] = 0.8 ppm active ingredient, +RME +AS (each 1000 ppm)
[14] = 0.8 ppm active ingredient, no additive

`COC1CCC2(CC1)NC(=O)C(c1cc(C)ccc1Br)=C2O` (stereo not shown) [Example I-1-a-11] was tested, and the “Degree of destruction/% after 6 days” value [1, 5] was 5%, the “Degree of destruction/% after 6 days” value [1, 6] was 55% and the “Degree of destruction/% after 6 days” value [1, 7] was 99%. For the same compound, the “Degree of destruction/% after 6 days” value [1, 8] was 0%, the “Degree of destruction/% after 6 days” value [2, 5] was 35% and the “Degree of destruction/% after 6 days” value [2, 6] was 45%. For the same compound, the “Degree of destruction/% after 6 days” value [2, 7] was 80%, the “Degree of destruction/% after 6 days” value [2, 8] was 5% and the “Degree of destruction/% after 6 days” value [3, 5] was 35%. The “Degree of destruction/% after 6 days” value [3, 8] was 5%, the “Degree of destruction/% after 6 days” value [3, 9] was 80% and the “Degree of destruction/% after 6 days” value [3, 10] was 45%. The “Degree of destruction/% after 6 days” value [4, 9] was 70% and the “Degree of destruction/% after 6 days” value [4, 10] was 0%.
With `Cc1cc(Br)cc(C)c1-c1c(O)c(C)c(-c2ccccn2)oc1=O` [Example I-4-a-3] the “Degree of destruction/% after 6 days” value [1, 11] was 5%, the “Degree of destruction/% after 6 days” value [1, 12] was 20% and the “Degree of destruction/% after 6 days” value [1, 13] was 98%. For the same compound, the “Degree of destruction/% after 6 days” value [1, 14] was 0%, the “Degree of destruction/% after 6 days” value [2, 11] was 40% and the “Degree of destruction/% after 6 days” value [2, 12] was 0%. The “Degree of destruction/% after 6 days” value [2, 13] was 80%, the “Degree of destruction/% after 6 days” value [2, 14] was 0% and the “Degree of destruction/% after 6 days” value [3, 11] was 40%. The “Degree of destruction/% after 6 days” value [3, 14] was 0%, the “Degree of destruction/% after 6 days” value [3, 5] was 70% and the “Degree of destruction/% after 6 days” value [3, 8] was 25%. For the same compound, the “Degree of destruction/% after 6 days” value [4, 5] was 70%, the “Degree of destruction/% after 6 days” value [4, 8] was 5% and the “Degree of destruction/% after 6 days” value [4, 9] was 85%. For the same compound, the “Degree of destruction/% after 6 days” value [4, 10] was 40%.
In the case of `COC1CCC2(CC1)NC(=O)C(c1c(Cl)cc(Cl)c(C)c1Cl)=C2O` (stereo not shown) [Example I-1-a-12], the “Degree of destruction/% after 6 days” value [1, 5] is reported as 5%, the “Degree of destruction/% after 6 days” value [1, 6] is reported as 0% and the “Degree of destruction/% after 6 days” value [1, 7] is reported as 50%. The “Degree of destruction/% after 6 days” value [1, 8] was 0%, the “Degree of destruction/% after 6 days” value [1, 9] was 65% and the “Degree of destruction/% after 6 days” value ([1]; 20 ppm active ingredient, +RME (1000 ppm)) was 70%. For the same compound, the “Degree of destruction/% after 6 days” value ([1]; 20 ppm active ingredient, +RME +AS (each 1000 ppm)) was 98%, the “Degree of destruction/% after 6 days” value [1, 10] was 55% and the “Degree of destruction/% after 6 days” value [2, 11] was 45%. The “Degree of destruction/% after 6 days” value [2, 12] was 45%, the “Degree of destruction/% after 6 days” value [2, 13] was 65% and the “Degree of destruction/% after 6 days” value [2, 14] was 5%. For the same compound, the “Degree of destruction/% after 6 days” value [3, 11] was 45%, the “Degree of destruction/% after 6 days” value [3, 14] was 5% and the “Degree of destruction/% after 6 days” value [3, 5] was 95%. The “Degree of destruction/% after 6 days” value [3, 8] was 65%, the “Degree of destruction/% after 6 days” value [4, 9] was 65% and the “Degree of destruction/% after 6 days” value [4, 10] was 55%.
For `COc1cc(C)cc(C)c1C1=C(O)C2(CCC(OC)CC2)OC1=O` (stereo not shown) [Example I-2-a-2], the “Degree of destruction/% after 6 days” value [1, 11] was 25%, the “Degree of destruction/% after 6 days” value [1, 12] was 15% and the “Degree of destruction/% after 6 days” value [1, 13] was 99%. For the same compound, the “Degree of destruction/% after 6 days” value [1, 14] was 0%, the “Degree of destruction/% after 6 days” value [2, 11] was 70% and the “Degree of destruction/% after 6 days” value [2, 12] was 50%. The “Degree of destruction/% after 6 days” value [2, 13] was 95%, the “Degree of destruction/% after 6 days” value [2, 14] was 30% and the “Degree of destruction/% after 6 days” value [3, 11] was 70%. For the same compound, the “Degree of destruction/% after 6 days” value [3, 14] was 30%, the “Degree of destruction/% after 6 days” value [3, 5] was 95% and the “Degree of destruction/% after 6 days” value [3, 8] was 85%. The “Degree of destruction/% after 6 days” value [4, 11] was 25%, the “Degree of destruction/% after 6 days” value [4, 14] was 0% and the “Degree of destruction/% after 6 days” value [4, 5] was 90%. For the same compound, the “Degree of destruction/% after 6 days” value [4, 8] was 65%.
